In patent US20110045100A1, “Antimalarial Quinolines and Methods of Use Thereof” (GEORGETOWN UNIVERSITY, priority 2008, published 2011):

Assays:
[1] = system: CQS (HB3, GCO3) and CQR (Dd2, FCB) strains of P. falciparum; test: SYBR Green I antiplasmodial assay, several CQS and CQR strains; type: cell-based, Plasmodium falciparum; settings: Plasmodium falciparum; read-out: IC50 vs. CQR parasites
Excerpt: (§1) Bennett T. N.; Paguio, M.; Gligorijevic, B.; Seudieu, C.; Kosar, A. D.; Davidson, E.; Roepe, P. D. Novel, rapid, and inexpensive cell-based quantification of antimalarial drug efficacy. Antimicrob. Agents Chemother. 2004, 48, 1807-1810; Smilkstein, M.; Sriwilaijaroen, N.; Kelly, J. X.; Wilairat, P.; Riscoe, M. Simple and inexpensive fluorescence-based technique for high-throughput antimalarial drug screening. Antimicrob. Agents Chemother. 2004, 48, 1803-1806; and Johnson, J. D.; Dennull, R. A.; Gerena, L.; Lopez-Sanchez, M.; Roncal, N. E.; Waters, N.C. Assessment and continued validation of the malaria SYBR green I-based fluorescence assay for use in malaria drug screening. Antimicrob. Agents Chemother. 2007, 51, 1926-1933. […] Drake, N. L.; Creech, H. J.; Garman, J. A.; Haywood, S. T.; Peck, R. M.; van Hook, J. O.; Walton, E. Synthetic antimalrials. The preparation of certain 4-aminoquinolines. J. Am. Chem. Soc. […] Trans. R. Soc. Trop. Med. Hyg. […] J. Parasitol. 1983, 69, 97-105. The selectivity index provides a quantitative measure of the antimalarial activity against CQR strains relative to that against sensitive strains and thus indicates promising drug discovery leads. […] This can be combined with the introduction of a third basic amino function which should further favor accumulation of the drug within the acidic food vacuole of the parasite.
Bennett T. N.; Paguio, M.; Gligorijevic, B.; Seudieu, C.; Kosar, A. D.; Davidson, E.; Roepe, P. D. Novel, rapid, and inexpensive cell-based quantification of antimalarial drug efficacy. Antimicrob. Agents Chemother. 2004, 48, 1807-1810; Smilkstein, M.; Sriwilaijaroen, N.; Kelly, J. X.; Wilairat, P.; Riscoe, M. Simple and inexpensive fluorescence-based technique for high-throughput antimalarial drug screening. Antimicrob. Agents Chemother. 2004, 48, 1803-1806; and Johnson, J. D.; Dennull, R. A.; Gerena, L.; Lopez-Sanchez, M.; Roncal, N. E.; Waters, N.C. Assessment and continued validation of the malaria SYBR green I-based fluorescence assay for use in malaria drug screening. Antimicrob. Agents Chemother. 2007, 51, 1926-1933.
Drug activities were assessed and IC50 were quantified essentially as described previously. Delarue, S.; Girault, S.; Maes, L.; Debreu-Fontaine, M. A.; Labaeid, M.; Grellier, P.; Sergheraert, C. Synthesis and in vitro and in vivo antimalarial activity of new 4-anilinoquinolines. J. Med. Chem. 2001, 44, 2827-2833; and O'Neill, P. M.; Willock, D. J.; Hawley, S. R.; Bray, P. G.; Storr, R. C.; Ward, S. A.; Park, B. K. Synthesis, antimalarial activity, and molecular modeling of tebuquine analogues. J. Med. Chem. 1997, 40, 437-448.

[2] = system: μ-oxo dimeric heme; test: Heme affinity measurement, μ-oxo dimeric heme; type: binding; settings: aqueous solution
Protocol: 1.5 mL cuvettes containing freshly prepared samples of 4.8 μM heme were titrated with increasing concentrations (0-50 μM) of drug. Following each addition, the sample was mixed and heme absorbance then recorded at 402 nm. Control experiments were performed by titrating 4.8 μM heme with similar volumes of solvent and no drug present. To measure affinity for μ-oxo dimeric heme, the procedure was similar except hemin was first converted to dimeric form in mild alkaline solution, followed by titration to pH 7.5 using Hepes buffer. The absorbance peak analysis was done using Microsoft excel and Ka were extracted from the ΔAbs402 plots via Scatchard analysis using Microsoft Excel and Sigma plot 9.0.1 software.

[3] = pKa determination by acid/base titration; type: physicochemical; settings: distilled water; measured; read-out: quinolyl N pKa
Protocol: SPARC pKa calculator is an online tool developed at the University of Georgia by S. W. Karickhoff, L. A. Carreira and S. H. Hilal. Experimental pKa were determined using an Accumet AB15 pH meter and a calomel electrode. 10 mM solutions of the drugs (as dibasic salts) were made in distilled H2O and titrated at room temperature (23.0±2.0° C.) using 0.1 M NaOH. Titration plots were generated and pKa's extracted via inflection points from the second derivative plots; (Δ^2pH/ΔV^2) vs. V, where V represents the volume of the titrant added and ΔV is the volume increment.

[4] = system: Dd2 (chloroquine resistant strain of P. falciparum); test: SYBR Green I antiplasmodial assay, strain Dd2; type: cell-based, Plasmodium falciparum; settings: strain Dd2
Excerpt: as §1
The antiplasmodial activity of these compounds was measured versus a CQS (HB3) and a CQR (Dd2) strain using a standardized, inexpensive assay based on SYBR Green I intercalation. Bennett T. N.; Paguio, M.; Gligorijevic, B.; Seudieu, C.; Kosar, A. D.; Davidson, E.; Roepe, P. D. Antimicrob. Agents Chemother. 2004, 48, 1807-1810; Smilkstein, M.; Sriwilaijaroen, N.; Kelly, J. X.; Wilairat, P.; Riscoe, M. Antimicrob. Agents Chemother. 2004, 48, 1803-1806; and Johnson, J. D.; Dennull, R. A.; Gerena, L.; Lopez-Sanchez, M.; Roncal, N. E.; Waters, N.C. Antimicrob. Agents Chemother. 2007, 51, 1926-1933. […] De, D.; Krogstad, F. M.; Cogswell, F. B.; Krogstad, D. J. Am. J. Trop. Med. Hyg. 1996, 55, 579-583. […] The basic tertiary amino function in the side chain is commonly believed to be crucial for the accumulation of the drug within the acidic food DV.
Drug activities were assessed and IC50 were quantified essentially as described previously. Delarue, S.; Girault, S.; Maes, L.; Debreu-Fontaine, M. A.; Labaeid, M.; Grellier, P.; Sergheraert, C. Synthesis and in vitro and in vivo antimalarial activity of new 4-anilinoquinolines. J. Med. Chem. 2001, 44, 2827-2833; and O'Neill, P. M.; Willock, D. J.; Hawley, S. R.; Bray, P. G.; Storr, R. C.; Ward, S. A.; Park, B. K. Synthesis, antimalarial activity, and molecular modeling of tebuquine analogues. J. Med. Chem. 1997, 40, 437-448. The aminoquinolines were diluted using complete media under sterile conditions and plated in a 96 well plate format. Sorbitol synchronized cultures were utilized with >95% of the parasites at the ring stage. Cultures were diluted to give a working stock of 0.5% parasitemia and 2% hematocrit (final hematocrit 1% & 0.5% Parasitemia). The plates were incubated for 72 h at 37° C. After 72 h, 50 μL of 10×SYBR green I dye was added to each well, and the plate was incubated for 1 h at 37° C. Fluorescence was measured at 530 nm (490 nm excitation) using a spectra geminiEM plate reader. Data analysis was performed using sigma plot 9.0 software after downloading data in Excel format.

- IC50 [1]: ~1 µM
- pKa [3]: 4.5
- fold lower IC50 relative to 98 [4]: 4 fold
Compound: CCN(CC)CCCCOc1ccnc2cc(Cl)ccc12 [compound 93, O-(7-Chloro-4-quinolyl)-4-(N,N-diethylamino)butanol]
- affinity (association constant Ka) vs. μ-oxo dimer [2]: quite similar
